Measurements published in the supplement of paper PMC11208160.

Experiment: recombinant UMI read abundance after kanamycin selection (control-corrected) (log10(CPM+1)); higher = more efficient recombination; extreme values may be limits of the assay; sequences stand for … in AGTGCAGAGAAAATCGGCCAGTTTTCTCTGCCTGCAGTCCGCATGCCGTGGGACCCCTTGGGTTCTAACCTGTTGCCTAGATTTATGCAGCGGACTGCCTTTCTCCCAAAGTGATAAACCGG…AGGTTGGTTTCACT; site = the 11-nt donor
Summary of the method: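 Pooled Escherichia coli screen of donor and donor-binding-loop pairs for the IS621 bridge recombinase. Each pair sits with a 12-nt UMI on a plasmid carrying a promoterless kanamycin gene. The library was co-electroporated with a target plasmid encoding a fixed target and T7-inducible recombinase, then plated with IPTG (0.07 mM) plus kanamycin, or unselected, each in two replicates. Recombinant UMIs were PCR-amplified across the donor–target junction and sequenced. Counts became CPM, averaged over replicates, scaled by control-derived factors and reported as log10(CPM+1).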
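Also: IS621 bridge recombinase in Escherichia coli cells against a fixed T5 target plasmid.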

Sequence	recombinant UMI read abundance (log10)
CGTCTCTCATGGACCGGTTTTCCCGGTAATCCGTATTTGGG (site CGTCTCTCTCC)	0.0222
CGTCTCTCATGGACCGGTTTTCCCGGTAATCCGTATTTGTA (site CATCTCTCTTA)	1.13
CGTCTCTCATGGACCGGTTTTCCCGGTAATCCGTATTTGTA (site CCTCTCTCTTA)	1.04
CGTCTCTCATGGACCGGTTTTCCCGGTAATCCGTATTTGTA (site CGTCTCTCTTA)	2.64
CGTCTCTCATGGACCGGTTTTCCCGGTAATCCGTATTTGTA (site CTTCTCTCTTA)	1.33
CGTCTGTCATGGACCGGTTTTCCCGGTAATCCGTATTTGAC (site CGTCTGTCTGT)	0
CGTGCAACATGGACCGGTTTTCCCGGTAATCCGTATTTGTT (site CGTGAAACTAA)	0
CGTGCAACATGGACCGGTTTTCCCGGTAATCCGTATTTGTT (site CGTGCAACTAA)	0.0114
CGTGCAACATGGACCGGTTTTCCCGGTAATCCGTATTTGTT (site CGTGGAACTAA)	0.018
CGTGCAACATGGACCGGTTTTCCCGGTAATCCGTATTTGTT (site CGTGTAACTAA)	0.00375
CGTGGAACATGGACCGGTTTTCCCGGTAATCCGTATTTGAT (site CGTGGAACTAA)	0.00774
CGTGGAACATGGACCGGTTTTCCCGGTAATCCGTATTTGAT (site CGTGGAACTAC)	0
CGTGGAACATGGACCGGTTTTCCCGGTAATCCGTATTTGAT (site CGTGGAACTAG)	0
CGTGGAACATGGACCGGTTTTCCCGGTAATCCGTATTTGAT (site CGTGGAACTAT)	2.14
CGTGGAACATGGACCGGTTTTCCCGGTAATCCGTATTTGTG (site CGTGGAACTAA)	0.0173
CGTGGAACATGGACCGGTTTTCCCGGTAATCCGTATTTGTG (site CGTGGAACTCA)	1.16
CGTGGAACATGGACCGGTTTTCCCGGTAATCCGTATTTGTG (site CGTGGAACTGA)	0
CGTGGAACATGGACCGGTTTTCCCGGTAATCCGTATTTGTG (site CGTGGAACTTA)	1.61
CGTGGAACATGGACCGGTTTTCCCGGTAATCCGTATTTGTT (site AGTGGAACTAA)	0.101

Sequence	recombinant UMI read abundance (log10)
CGTGGAACATGGACCGGTTTTCCCGGTAATCCGTATTTGTT (site CATGGAACTAA)	0.0194
CGTGGAACATGGACCGGTTTTCCCGGTAATCCGTATTTGTT (site CCTGGAACTAA)	0.0032
CGTGGAACATGGACCGGTTTTCCCGGTAATCCGTATTTGTT (site CGAGGAACTAA)	1.63
CGTGGAACATGGACCGGTTTTCCCGGTAATCCGTATTTGTT (site CGCGGAACTAA)	0.501
CGTGGAACATGGACCGGTTTTCCCGGTAATCCGTATTTGTT (site CGGGGAACTAA)	0.00685
CGTGGAACATGGACCGGTTTTCCCGGTAATCCGTATTTGTT (site CGTAGAACTAA)	1.15
CGTGGAACATGGACCGGTTTTCCCGGTAATCCGTATTTGTT (site CGTCGAACTAA)	0.0185
CGTGGAACATGGACCGGTTTTCCCGGTAATCCGTATTTGTT (site CGTGAAACTAA)	0
CGTGGAACATGGACCGGTTTTCCCGGTAATCCGTATTTGTT (site CGTGCAACTAA)	0.00967
CGTGGAACATGGACCGGTTTTCCCGGTAATCCGTATTTGTT (site CGTGGAACTAA)	1.72
CGTGGAACATGGACCGGTTTTCCCGGTAATCCGTATTTGTT (site CGTGGAACTAC)	0.303
CGTGGAACATGGACCGGTTTTCCCGGTAATCCGTATTTGTT (site CGTGGAACTAG)	0.951
CGTGGAACATGGACCGGTTTTCCCGGTAATCCGTATTTGTT (site CGTGGAACTAT)	0.403
CGTGGAACATGGACCGGTTTTCCCGGTAATCCGTATTTGTT (site CGTGGAACTCA)	0.251
CGTGGAACATGGACCGGTTTTCCCGGTAATCCGTATTTGTT (site CGTGGAACTGA)	0.938
CGTGGAACATGGACCGGTTTTCCCGGTAATCCGTATTTGTT (site CGTGGAACTTA)	0.841
CGTGGAACATGGACCGGTTTTCCCGGTAATCCGTATTTGTT (site CGTGGACCTAA)	0.071
CGTGGAACATGGACCGGTTTTCCCGGTAATCCGTATTTGTT (site CGTGGAGCTAA)	0.00766
CGTGGAACATGGACCGGTTTTCCCGGTAATCCGTATTTGTT (site CGTGGATCTAA)	0.524

Sequence	recombinant UMI read abundance (log10)
CGTGGAACATGGACCGGTTTTCCCGGTAATCCGTATTTGTT (site CGTGGCACTAA)	0.0304
CGTGGAACATGGACCGGTTTTCCCGGTAATCCGTATTTGTT (site CGTGGGACTAA)	0.0232
CGTGGAACATGGACCGGTTTTCCCGGTAATCCGTATTTGTT (site CGTGGTACTAA)	0
CGTGGAACATGGACCGGTTTTCCCGGTAATCCGTATTTGTT (site CGTGTAACTAA)	0
CGTGGAACATGGACCGGTTTTCCCGGTAATCCGTATTTGTT (site CGTTGAACTAA)	0
CGTGGAACATGGACCGGTTTTCCCGGTAATCCGTATTTGTT (site CTTGGAACTAA)	0.0161
CGTGGAACATGGACCGGTTTTCCCGGTAATCCGTATTTGTT (site GGTGGAACTAA)	0.0165
CGTGGAACATGGACCGGTTTTCCCGGTAATCCGTATTTGTT (site TGTGGAACTAA)	0.0144
CGTGGACCATGGACCGGTTTTCCCGGTAATCCGTATTTGGG (site CGAGGACCTCC)	0.0168
CGTGGACCATGGACCGGTTTTCCCGGTAATCCGTATTTGGG (site CGCGGACCTCC)	0.00423
CGTGGACCATGGACCGGTTTTCCCGGTAATCCGTATTTGGG (site CGGGGACCTCC)	0.028
CGTGGACCATGGACCGGTTTTCCCGGTAATCCGTATTTGGG (site CGTGGACCTCC)	0.0154
CGTGGGACATGGACCGGTTTTCCCGGTAATCCGTATTTGTT (site CGTGGAACTAA)	1.86
CGTGGGACATGGACCGGTTTTCCCGGTAATCCGTATTTGTT (site CGTGGCACTAA)	0.0102
CGTGGGACATGGACCGGTTTTCCCGGTAATCCGTATTTGTT (site CGTGGGACTAA)	1.79
CGTGGGACATGGACCGGTTTTCCCGGTAATCCGTATTTGTT (site CGTGGTACTAA)	0
CGTGGTTCATGGACCGGTTTTCCCGGTAATCCGTATTTGCG (site CGTGGTTCTCG)	2.1
CGTGTAACATGGACCGGTTTTCCCGGTAATCCGTATTTGCG (site CGTGTAACTCG)	1.78
CGTGTCACATGGACCGGTTTTCCCGGTAATCCGTATTTGGT (site CGTGTCACTAC)	1.31
